In US5043322A, “Cyclic GRF analogs” (The Salk Institute for Biological Studies, priority 1988, dated 1991):
Where a SMILES comes first, the peptide text is derived from it. Bridges are numbered along the chain shown (N, C = ends). [ ]: non-standard residue; d: D form. NMeY = CN[C@@H](Cc1ccc(O)cc1)C(=O)O; Nle = CCCC[C@H](N)C(=O)O

Legend:
[1] = test system: urethane-anesthetized male rats; assay: in vivo GH secretion after intravenous injection, blood GH by radioimmunoassay; set-up: species or system rat; details: compared with 25 μg hGRF(1-40)--OH
Method: In addition to the in vitro tests for secretion of growth hormone, in vivo experiments inject the synthetic peptides intravenously into urethane-anesthetized male rats and determine that they trigger GH secretion. Blood samples are taken immediately prior to, and 10, 45 and 90 minutes after injections, and GH levels in blood are measured by radioimmunoassay. […] Dosages between about 400 nanograms and about 50 micrograms of these cyclic peptides per Kg. of body weight are considered to be effective in causing GH secretion.

[2] = test system: cells of rat pituitary glands; assay: in vitro GH release from cultured rat pituitary cells, side-by-side with standard hGRF(1-40)--OH; format: cell-based; details: equimolar concentrations, incubation 3 to 4 hours, ir GH in culture medium by radioimmunoassay
Method: All of these synthetic peptides are considered to be biologically active and potentially useful for stimulating the release of GH by the pituitary.
To determine the relative effectiveness of certain representative synthetic peptides to promote the release of growth hormone, in vitro assays are carried out using synthetic hGRF(1-40)--OH as a standard in side-by-side comparison with equimolar concentrations of the representative analogs which have been synthesized. Cultures are used which include cells of rat pituitary glands removed some three to five days previously. Such cultures are considered optimal for the secretion of growth hormone and are used for the comparative testing, in the general manner described in Vale et al. Endocrinology, 91, 562-572 (1972) and as more particularly described in Vale et al. Endocrinology, 112, 553-1555 (1983). Incubation with the substance to be tested is carried out for 3 to 4 hours, and aliquots of the culture medium are removed and processed to measure their contents in immunoreactive GH(ir GH) by a well-characterized radioimmunoassay.

Compound: CCCC[C@@H]1NC(=O)[C@H]([C@@H](C)CC)NC(=O)[C@H](NC(=O)[C@H](Cc2c[nH]cn2)NC(=O)[C@H](CC(C)C)NC(=O)[C@H](CC(C)C)NC(=O)[C@H](CCCCN)NC(=O)[C@H](CCCNC(=N)N)NC(=O)[C@H](C)NC(=O)[C@H](Cc2ccc(O)cc2)NC(=O)[C@H](CC(C)C)NC(=O)[C@H](CCC(N)=O)NC(=O)[C@H](C)NC(=O)[C@H](CC(C)C)NC(=O)[C@@H](NC(=O)[C@H](CCCNC(=N)N)NC(=O)[C@H](CCCNC(=N)N)NC(=O)[C@H](Cc2ccc(O)cc2)NC(=O)[C@H](CO)NC(=O)[C@H](CO)NC(=O)[C@@H](NC(=O)[C@H](Cc2ccccc2)NC(=O)[C@@H](NC(=O)[C@H](C)NC(=O)[C@H](CC(=O)O)NC(=O)[C@H](C)NC(=O)[C@H](Cc2ccc(O)cc2)NC)[C@@H](C)CC)[C@@H](C)O)[C@@H](C)CC)CSSC[C@@H](C(N)=O)NC(=O)[C@H](CC(N)=O)NC1=O [Example I, [N^a MeTyr^1, Ala^15, D-Cys^25, Nle^27,Cys^29]-rGRF(1-29)-NH2] (H-[NMeY]ADAIFTSSYRRILAQLYARKLLH[dC]I[Nle]NC-NH2; disulfide 25-29)
- in vivo response (blood GH) at 10 minutes ([1]; dosage of 1 μg): greater than a 25 μg dose of hGRF(1-40)--OH

Compound: CCCC[C@@H]1NC(=O)[C@H]([C@@H](C)CC)NC(=O)[C@@H](NC(=O)[C@H](Cc2c[nH]cn2)NC(=O)[C@H](CC(C)C)NC(=O)[C@H](CC(C)C)NC(=O)[C@H](CCCCN)NC(=O)[C@H](CCCNC(=N)N)NC(=O)[C@H](C)NC(=O)[C@H](Cc2ccc(O)cc2)NC(=O)[C@H](CC(C)C)NC(=O)[C@H](CCC(N)=O)NC(=O)[C@H](C)NC(=O)[C@H](CC(C)C)NC(=O)[C@@H](NC(=O)[C@H](CCCNC(=N)N)NC(=O)[C@H](CCCNC(=N)N)NC(=O)[C@H](Cc2ccc(O)cc2)NC(=O)[C@H](CO)NC(=O)[C@H](CO)NC(=O)[C@@H](NC(=O)[C@H](Cc2ccccc2)NC(=O)[C@@H](NC(=O)[C@H](C)NC(=O)[C@H](CC(=O)O)NC(=O)[C@H](C)NC(=O)[C@H](Cc2ccc(O)cc2)NC)[C@@H](C)CC)[C@@H](C)O)[C@@H](C)CC)CSSC[C@H](C(N)=O)NC(=O)[C@H](CC(N)=O)NC1=O [Example IA, [N^a MeTyr^1,Ala^15,Cys^25,Nle^27,D-Cys^29]-rGRF(1-29)-NH2] (H-[NMeY]ADAIFTSSYRRILAQLYARKLLHCI[Nle]N[dC]-NH2; disulfide 25-29)
- biological potency for the secretion of GH relative to hGRF(1-40)--OH [2]: about twice
- in vivo response (blood GH) at 10 minutes ([1]; dosage of 5 μg): greater than a 25 μg dose of hGRF(1-40)--OH
